# Literature values, collected in patent US20250161335A1, “Drug and Method for Nucleoside (Acid) Drug Therapy of Limiting Chronic Hepatitis B” (Shanghai Hep Pharmaceutical Co., Ltd., priority 2022, published 2025).
# System: HBV
# Settings: patients treated with nucleoside (acid) medicine
structure (smiles),measurement,value
C[C@H](Cn1cnc2c(N)ncnc21)OCP(=O)(O)O [tenofovir],inhibition rate on viral DNA,about 70%
